In US6579881B2 (Eisai Co., Ltd., priority 1997, dated 2003) one finds Ki, minimal effective dose and melting point data, which are given here for 23 compounds.

The target of one data set is T1, serotonin 1A receptor (Rattus norvegicus, UniProt P19327).
T1 construct: To the receptor fraction of the hippocampus were added a test compound and 0.5 nM of [^3H]; 8-hydroxy-dipropylaminotetralin; from tissue; host or cells: SD rat hippocampus, membrane (receptor) fraction
T1 sequence (P19327 1-422): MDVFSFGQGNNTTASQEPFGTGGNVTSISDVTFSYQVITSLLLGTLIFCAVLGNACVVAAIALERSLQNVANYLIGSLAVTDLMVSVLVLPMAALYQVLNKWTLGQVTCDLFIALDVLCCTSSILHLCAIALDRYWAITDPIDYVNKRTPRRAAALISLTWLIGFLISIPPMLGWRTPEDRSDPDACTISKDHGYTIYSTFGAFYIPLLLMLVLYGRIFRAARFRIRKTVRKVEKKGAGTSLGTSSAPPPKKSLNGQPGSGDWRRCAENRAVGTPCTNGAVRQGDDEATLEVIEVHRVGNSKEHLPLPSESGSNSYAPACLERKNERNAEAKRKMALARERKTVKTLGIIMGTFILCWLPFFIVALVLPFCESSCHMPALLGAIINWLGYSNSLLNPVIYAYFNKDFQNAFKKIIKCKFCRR
Nature of the data set: Binding test on [3H] 8-hydroxy-dipropylaminotetralin (serotonin 1A receptor). Particulars: [3H] 8-OH-DPAT 0.5 nM, receptor fraction of rat hippocampus; read-out: 5HT1a.

The target of another data set is serotonin 2 receptor (Rattus norvegicus, UniProt P14842). Nature of the data set: Binding test on [3H] ketanserin (serotonin 2 receptor). Particulars: [3H] ketanserin 0.3 nM, receptor fraction of rat cerebral cortex; read-out: 5HT2.
The target in a further data set is α1 adrenalin receptor. Description: Binding test on [3H] prazosin (α1 adrenalin receptor). Details: species or system rat. Particulars: [3H] prazosin about 0.2 nM, receptor fraction of rat cerebral cortex.
Data set [1] has as its system Straub's tail reaction (hyper-muscle tone in the tail). Description: Morphine induced Straub's tail phenomenon in mice. It is filed as in vivo. Particulars: Mus musculus, male ddY mice, 15 min before morphine hydrochloride 12.5 mg/kg s.c., statistically significant (p<0.05).
Where [2] appears, read: ip, i.p., read-out: minimal effective dose i.p.
[3] abbreviates: po, p.o., read-out: minimal effective dose p.o.

For orientation: minimal effective dose means the lowest level tested that produced the effect sought. As usually defined, the melting point is the temperature, or range, at which the solid turns liquid.

Read-outs that look alike come from different tables or passages of the source.

Chain of serotonin 2 receptor (P14842 whole entry): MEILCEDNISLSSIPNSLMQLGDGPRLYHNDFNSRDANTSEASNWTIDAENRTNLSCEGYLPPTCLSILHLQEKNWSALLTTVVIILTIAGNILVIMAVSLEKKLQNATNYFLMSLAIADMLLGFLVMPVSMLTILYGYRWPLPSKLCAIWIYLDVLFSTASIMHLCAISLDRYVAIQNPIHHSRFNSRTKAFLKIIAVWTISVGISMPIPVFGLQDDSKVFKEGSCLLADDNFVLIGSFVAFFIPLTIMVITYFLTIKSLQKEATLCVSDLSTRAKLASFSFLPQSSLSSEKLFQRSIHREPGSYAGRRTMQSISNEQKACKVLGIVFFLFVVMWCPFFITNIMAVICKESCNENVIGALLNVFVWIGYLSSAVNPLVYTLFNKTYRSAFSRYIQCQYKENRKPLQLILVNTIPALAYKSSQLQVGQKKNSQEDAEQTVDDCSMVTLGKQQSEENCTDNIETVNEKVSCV

The compound `CC(=O)NCc1ccc2ccn(C3CCN(CCc4ccc(F)cc4)CC3)c2c1` [Example 285, 1-[1-(4-fluorophenethyl)piperidin-4-yl]-6-acetamidomethylindole] yielded a melting point of 127 to 128 °C. Also, the Ki at serotonin 1A receptor turned out to be 0.44 nM. In addition, the Ki at serotonin 2 receptor was determined as 1.39 nM. At α1 adrenalin receptor, this compound registered a Ki of 26.8 nM. In addition, the minimal effective dose in data set [1] (setting [2]) is 1 mg/kg. In addition, in data set [1] (setting [3]), the minimal effective dose came to 1 mg/kg.

Turning to `CC(=O)N1CCC(Cc2ccc3c(c2)N(C2CCN(CCc4ccc(F)cc4)CC2)CC3)CC1` [Example 168, 1-[1-(4-fluorophenethyl)piperidin-4-yl]-6-[(1-acetylpiperidin-4-yl)methyl]indoline], the Ki on serotonin 1A receptor was 3.84 nM; at serotonin 2 receptor, 4.06 nM; on α1 adrenalin receptor, 72.6 nM. Further, in data set [1] (setting [3]), the minimal effective dose amounted to 10 mg/kg.

As to `OCCOc1ccc2c(c1)N(C1CCN(CCc3ccc(F)cc3)CC1)CC2` [Example 121, 1-[1-(4-fluorophenethyl)piperidin-4-yl]-6-hydroxyethoxyindoline], the Ki at serotonin 1A receptor turned out to be 0.5 nM; at serotonin 2 receptor, 22.8 nM; at α1 adrenalin receptor, 58.2 nM. In addition, the minimal effective dose in data set [1] (setting [3]) was found to be 10 mg/kg.

`NC(=O)c1ccc2c(c1)N(C1CCN(CCc3ccc(F)cc3)CC1)CC2` [Example 125, 1-[1-(4-fluorophenethyl)piperidin-4-yl]-6-carbamoylindoline]: the Ki was 0.1 nM at serotonin 1A receptor, 4.76 nM on serotonin 2 receptor and 46.4 nM on α1 adrenalin receptor. Besides, the minimal effective dose in data set [1] (setting [2]) amounted to 1 mg/kg; in data set [1] (setting [3]) it was 3 mg/kg.

With `NC(=O)Cc1ccc2c(c1)N(C1CCN(CCc3ccc(F)cc3)CC1)CC2` [Example 147, 1-[1-(4-fluorophenethyl)piperidin-4-yl]-6-carbamoylmethylindoline], the Ki was found to be 1.31 nM at serotonin 1A receptor, 0.77 nM at serotonin 2 receptor and 157 nM on α1 adrenalin receptor. Also, the minimal effective dose is not above 0.3 mg/kg in data set [1] (setting [2]) and not above 3 mg/kg in data set [1] (setting [3]).

Regarding `Fc1ccc(CCN2CCC(N3CCc4ccccc43)CC2)cc1` [Example 9, 1-[1-(4-fluorophenethyl)piperidin-4-yl]indoline], the figures for the Ki on serotonin 1A receptor, at serotonin 2 receptor and at α1 adrenalin receptor were 3 nM, 11.6 nM and 76.5 nM, respectively. Moreover, the minimal effective dose in data set [1] (setting [2]) is 10 mg/kg.

With `CC(=O)NCCc1ccc2c(c1)N(C1CCN(CCc3ccc(F)cc3)CC1)CC2` [Example 166, 1-[1-(4-fluorophenethyl)piperidin-4-yl]-6-acetamidoethylindoline], the Ki on serotonin 1A receptor was determined as 0.79 nM; at serotonin 2 receptor, 17.1 nM; on α1 adrenalin receptor it was 194 nM. The minimal effective dose in data set [1] (setting [2]) and in data set [1] (setting [3]) was 3 mg/kg each time.

For `Fc1ccc(CCN2CCC(N3CCc4ccc(F)cc43)CC2)cc1` [Example 103, 1-[1-(4-fluorophenethyl)piperidin-4-yl]-6-fluoroindoline], the figures for the Ki on serotonin 1A receptor, on serotonin 2 receptor and on α1 adrenalin receptor were 3.9 nM, 15.8 nM and 77.7 nM, respectively. Further, the minimal effective dose in data set [1] (setting [2]) was not above 10 mg/kg; in data set [1] (setting [3]), more than 30 mg/kg.

For `COc1ccc2c(c1)N(C1CCN(CCc3ccc(F)cc3)CC1)CC2` [Example 106, 1-[1-(4-fluorophenethyl)piperidin-4-yl]-6-methoxyindoline], the Ki came to 0.7 nM on serotonin 1A receptor, 6.4 nM on serotonin 2 receptor and 71.3 nM at α1 adrenalin receptor. Also, the minimal effective dose is 10 mg/kg in data set [1] (setting [2]) and more than 30 mg/kg in data set [1] (setting [3]).

In the case of `CC(c1ccc2c(c1)N(C1CCN(CCc3ccc(F)cc3)CC1)CC2)c1ccccn1` (stereo not shown) [Example 182, 1-[1-(4-fluorophenethyl)piperidin-4-yl]-6-[1-(2-pyridyl)ethyl]indoline], the Ki on serotonin 1A receptor came out at 4.28 nM; at serotonin 2 receptor, 2.91 nM; on α1 adrenalin receptor, 70.1 nM. Further, the minimal effective dose in data set [1] (setting [3]) turned out to be 10 mg/kg.

Regarding `CC(=O)NCc1ccc2c(c1)N(C1CCN(CCc3ccc(F)cc3)CC1)CC2` [Example 133, 1-[1-(4-fluorophenethyl)piperidin-4-yl]-6-acetamidomethylindoline], the Ki at serotonin 1A receptor stood at 3.7 nM; at serotonin 2 receptor it was 0.05 nM; on α1 adrenalin receptor it was 262 nM. Further, the minimal effective dose in data set [1] (setting [2]) was 0.3 mg/kg; in data set [1] (setting [3]) it was not above 0.3 mg/kg.

Turning to `CNCc1ccc2c(c1)N(C1CCN(CCc3ccc(F)cc3)CC1)CC2` [Example 162, 1-[1-(4-fluorophenethyl)piperidin-4-yl]-6-N-methylaminomethylindoline], the Ki is 0.98 nM at serotonin 1A receptor, 27.1 nM on serotonin 2 receptor and 223 nM on α1 adrenalin receptor. For the same compound, the results for the minimal effective dose in data set [1] (setting [2]) and in data set [1] (setting [3]) were 1 mg/kg and more than 10 mg/kg, respectively.

`NS(=O)(=O)c1ccc(CCN2CCC(N3CCc4ccccc43)CC2)cc1` [Example 42, 1-[1-(4-sulfamoylphenethyl)piperidin-4-yl]indoline]: the Ki at serotonin 1A receptor is 35.8 nM; on serotonin 2 receptor, 5.7 nM; at α1 adrenalin receptor it was 230 nM. Moreover, the minimal effective dose in data set [1] (setting [2]) was not above 10 mg/kg; in data set [1] (setting [3]) it was 10 mg/kg.

Take `OCc1cccc(CCN2CCC(N3CCc4ccccc43)CC2)c1` [Example 22, 1-[1-(3-hydroxymethylphenethyl)piperidin-4-yl]indoline]: the Ki at serotonin 1A receptor came out at 24 nM; at serotonin 2 receptor it was 12.2 nM; at α1 adrenalin receptor it was 113 nM. Moreover, the minimal effective dose in data set [1] (setting [3]) was more than 10 mg/kg.

In the case of `COc1ccc2c(c1)CCCC2C1CCN(CCc2ccc(F)cc2)CC1` (stereo not shown) [Example 277, 1-[2-(4-fluorophenyl)ethyl]-4-(6-methoxy-1,2,3,4-tetrahydronaphthalen-1-yl)piperidine], the results for the Ki on serotonin 1A receptor, on serotonin 2 receptor and at α1 adrenalin receptor were 22.8 nM, 3.9 nM and 354 nM, respectively. The minimal effective dose in data set [1] (setting [2]) was less than 1 mg/kg; in data set [1] (setting [3]), 30 mg/kg.

For `O=C1CCC(=O)N1Cc1ccc2c(c1)N(C1CCN(CCc3ccc(F)cc3)CC1)CC2` [Example 204, 1-[1-(4-fluorophenethyl)piperidin-4-yl]-6-(succinimido-1-yl)methylindoline], the Ki at serotonin 1A receptor amounted to 1.06 nM; on serotonin 2 receptor it was 4.49 nM; at α1 adrenalin receptor it was 183 nM. For the same compound, the minimal effective dose in data set [1] (setting [2]) and in data set [1] (setting [3]) was 3 mg/kg in each case.

With `COc1ncccc1C(O)c1ccc2c(c1)N(C1CCN(CCc3ccc(F)cc3)CC1)CC2` (stereo not shown) [Example 184, 1-[1-(4-fluorophenethyl)piperidin-4-yl]-6-[1-hydroxy-1-(2-methoxypyridin-3-yl)methyl]indoline], the Ki came out at 15.1 nM on serotonin 1A receptor, 3.06 nM on serotonin 2 receptor and 188 nM at α1 adrenalin receptor. Moreover, the minimal effective dose in data set [1] (setting [3]) worked out at 3 mg/kg.

With `COc1ccc(Cc2ccc3c(c2)N(C2CCN(CCc4ccc(F)cc4)CC2)CC3)cn1` [Example 189, 1-[1-(4-fluorophenethyl)piperidin-4-yl]-6-[1-(2-methoxypyridin-5-yl)methyl]indoline], the Ki worked out at 7.72 nM on serotonin 1A receptor, 2.02 nM at serotonin 2 receptor and 442 nM at α1 adrenalin receptor. For the same compound, the minimal effective dose in data set [1] (setting [3]) is 10 mg/kg.

As for `OC(c1ccc2c(c1)N(C1CCN(CCc3ccc(F)cc3)CC1)CC2)c1ncccn1` (stereo not shown) [Example 197, 1-[1-(4-fluorophenethyl)piperidin-4-yl]-6-[1-hydroxy-1-(pyrimidin-2-yl)methyl]indoline], the values for the Ki on serotonin 1A receptor, at serotonin 2 receptor and on α1 adrenalin receptor were 10.4 nM, 1.27 nM and 68.6 nM, respectively. Also, the minimal effective dose in data set [1] (setting [3]) was 10 mg/kg.

As for `CCNC(=O)Cc1ccc2c(c1)N(C1CCN(CCc3ccc(F)cc3)CC1)CC2` [Example 149, 1-[1-(4-fluorophenethyl)piperidin-4-yl]-6-(ethylcarbamoylmethyl)indoline], the Ki was determined as 7.44 nM at serotonin 1A receptor, 0.5 nM at serotonin 2 receptor and 304 nM on α1 adrenalin receptor. In addition, the minimal effective dose in data set [1] (setting [2]) is 1 mg/kg; in data set [1] (setting [3]), not above 3 mg/kg.

Regarding `CC(C)NC(=O)Cc1ccc2c(c1)N(C1CCN(CCc3ccc(F)cc3)CC1)CC2` [Example 151, 1-[1-(4-fluorophenethyl)piperidin-4-yl]-6-(isopropylcarbamoylmethyl)indoline], the figures for the Ki on serotonin 1A receptor, at serotonin 2 receptor and on α1 adrenalin receptor were 8.84 nM, 0.57 nM and 292 nM, respectively. Further, in data set [1] (setting [3]), the minimal effective dose came to 3 mg/kg.

As for `CC(O)c1ccc2c(c1)N(C1CCN(CCc3ccc(F)cc3)CC1)CC2` (stereo not shown) [Example 137, 1-[1-(4-fluorophenethyl)piperidin-4-yl]-6-(1-hydroxyethyl)indoline], the results for the Ki at serotonin 1A receptor, on serotonin 2 receptor and on α1 adrenalin receptor were 0.65 nM, 6.68 nM and 126 nM, respectively. For the same compound, the minimal effective dose in data set [1] (setting [3]) is 1 mg/kg.

Take `CC(=O)NCc1ccc(CCN2CCC(N3CCc4ccccc43)CC2)cc1` [Example 36, 1-[1-(4-acetamidomethylphenethyl)piperidin-4-yl]indoline]: the figures for the Ki on serotonin 1A receptor, at serotonin 2 receptor and on α1 adrenalin receptor were 4.5 nM, 14.9 nM and 39 nM, respectively. Also, the minimal effective dose was 1 mg/kg in data set [1] (setting [2]) and not above 3 mg/kg in data set [1] (setting [3]).
